According to patent publication US20170334899A1, “AMINO-SUBSTITUTED ISOTHIAZOLES” (Bayer Pharma Aktiengesellschaft, priority 2014, published 2017):

Target: T1, catalytic domain of human Bub1 (amino acids 704-1085) (Homo sapiens, UniProt O43683)
T1 construct: catalytic domain of human Bub1 (amino acids 704-1085); His6 (N); made in house; host or cells: insect cells (Hi5)
Assay: Bub1 kinase assay (TR-FRET)
Type: biochemical
Settings: 10 μM ATP, avg, read-out: Bub1 avg (IC50 [mol/l])
In short: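 Readout is the 665/620 nm TR-FRET ratio from anti-phosphoserine antibody, Eu-labelled anti-mouse IgG and streptavidin-XL665, scaled between no-enzyme and uninhibited controls. Reaction: 1 μM biotinylated peptide, 10 μM ATP, 60 min, 22 °C, after 15 min compound preincubation with His6-Bub1 (704-1085, insect-expressed, ~200 ng/ml).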

T1 sequence (O43683 704-1085): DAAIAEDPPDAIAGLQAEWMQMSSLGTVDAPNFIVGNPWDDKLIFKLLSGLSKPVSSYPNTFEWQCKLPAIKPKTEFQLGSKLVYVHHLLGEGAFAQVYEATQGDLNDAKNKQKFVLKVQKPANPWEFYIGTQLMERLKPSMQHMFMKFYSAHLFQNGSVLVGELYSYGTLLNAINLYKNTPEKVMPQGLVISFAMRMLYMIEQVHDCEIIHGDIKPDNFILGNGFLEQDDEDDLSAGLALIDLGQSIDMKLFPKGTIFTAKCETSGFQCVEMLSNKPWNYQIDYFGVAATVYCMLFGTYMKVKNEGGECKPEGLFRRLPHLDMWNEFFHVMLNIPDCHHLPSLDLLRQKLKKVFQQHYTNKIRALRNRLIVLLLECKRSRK

SMILES | IC50
Cc1nsc(Nc2cnc(C(F)(F)F)cn2)c1C(=O)Nc1ccc(F)c(OC[C@H]2CCN(CC(F)(F)F)C2)c1 [Example 398, N-(4-fluoro-3-{[(3S)-1-(2,2,2-trifluoroethyl)pyrrolidin-3-yl]methoxy}phenyl)-3-methyl-5-{[5-(trifluoromethyl)pyrazin-2-yl]amino}-1,2-thiazole-4-carboxamide] | > 20 µM
Cc1nsc(Nc2cnc(C(F)(F)F)cn2)c1C(=O)Nc1ccc(OC[C@@H]2CCCN(CC(F)F)C2)nc1 [Example 375, N-(6-{[(3R)-1-(2,2-difluoroethyl)piperidin-3-yl]methoxy}pyridin-3-yl)-3-methyl-5-{[5-(trifluoromethyl)pyrazin-2-yl]amino}-1,2-thiazole-4-carboxamide] | > 20 µM
Cc1nsc(Nc2cnc(C(F)(F)F)cn2)c1C(=O)Nc1ccc(F)c(OCC2CCCN(CC(F)F)C2)c1 (stereo not drawn) [Example 334, N-(3-{[1-(2,2-difluoroethyl)piperidin-3-yl]methoxy}-4-fluorophenyl)-3-methyl-5-{[5-(trifluoromethyl)pyrazin-2-yl]amino}-1,2-thiazole-4-carboxamide] | ≥ 20 µM
Cc1nsc(Nc2cnc(C(F)(F)F)cn2)c1C(=O)Nc1ccc(F)c(OC[C@@H]2CCCN(CC(F)(F)F)C2)c1 [Example 342, N-(4-fluoro-3-{[(3R)-1-(2,2,2-trifluoroethyl)piperidin-3-yl]methoxy}phenyl)-3-methyl-5-{[5-(trifluoromethyl)pyrazin-2-yl]amino}-1,2-thiazole-4-carboxamide] | > 20 µM
Cc1nsc(Nc2cnc(C(F)(F)F)cn2)c1C(=O)Nc1ccc(C2CCN(CC(F)F)CC2)nc1 [Example 357, N-{6-[1-(2,2-difluoroethyl)piperidin-4 yl]pyridin-3-yl}-3-methyl-5-{[5-(trifluoromethyl)pyrazin-2-yl]amino}-1,2-thiazole-4-carboxamide] | > 20 µM
CCCN1CC[C@H](Oc2ccc(NC(=O)c3c(C)nsc3Nc3cnc(C(F)(F)F)cn3)cn2)[C@@H](F)C1 [Example 370, N-(6-{[(3S,4S)-3-fluoro-1-propylpiperidin-4-yl]oxy}pyridin-3-yl)-3-methyl-5-{[5-(trifluoromethyl)pyrazin-2-yl]amino}-1,2-thiazole-4-carboxamide] | > 20 µM
Cc1nsc(Nc2cnc(C(F)(F)F)cn2)c1C(=O)Nc1ccc(F)c(OC[C@@H]2CCCN(CC(F)F)C2)c1 [Example 341, N-(3-{[(3R)-1-(2,2-difluoroethyl)piperidin-3-yl]methoxy}-4-fluorophenyl)-3-methyl-5-{[5-(trifluoromethyl)pyrazin-2-yl]amino}-1,2-thiazole-4-carboxamide] | > 20 µM
CCCCN1CCC(COc2ccc(NC(=O)c3c(C)nsc3Nc3cnc(C(F)(F)F)cn3)cn2)C(F)(F)C1 (stereo not drawn) [Example 396, N-{6-[(1-butyl-3,3-difluoropiperidin-4-yl)methoxy]pyridin-3-yl}-3-methyl-5-{[5-(trifluoromethyl)pyrazin-2-yl]amino}-1,2-thiazole-4-carboxamide] | > 20 µM
Cc1nsc(Nc2cnc(C(F)(F)F)cn2)c1C(=O)Nc1ccc(F)c(OC[C@@H]2CCCN(CCC(F)(F)F)C2)c1 [Example 395, N-(4-fluoro-3-{[(3R)-1-(3,3,3-trifluoropropyl)piperidin-3-yl]methoxy}phenyl)-3-methyl-5-{[5-(trifluoromethyl)pyrazin-2-yl]amino}-1,2-thiazole-4-carboxamide] | > 20 µM
Cc1nsc(Nc2cnc(C(F)(F)F)cn2)c1C(=O)Nc1ccc(OCC2CCCN(CC(F)(F)F)C2)nc1 (stereo not drawn) [Example 326, 3-methyl-N-(6-{[1-(2,2,2-trifluoroethyl)piperidin-3-yl]methoxy}pyridin-3-yl)-5-{[5-(trifluoromethyl)pyrazin-2-yl]amino}-1,2-thiazole-4-carboxamide] | ≥ 20 µM
Cc1nsc(Nc2cnc(C(F)(F)F)cn2)c1C(=O)Nc1ccc(N2CCN(CCC(F)(F)F)CC2)nc1 [Example 361, 3-methyl-5-{[5-(trifluoromethyl)pyrazin-2-yl]amino}-N-{6-[4-(3,3,3-trifluoropropyl)piperazin-1-yl]pyridin-3-yl}-1,2-thiazole-4-carboxamide] | > 20 µM
Cc1nsc(Nc2cncc(C(F)(F)F)n2)c1C(=O)Nc1ccc(F)c(OC2CCN(CCC(F)(F)F)CC2)c1 [Example 343, N-(4-fluoro-3-{[1-(3,3,3-trifluoropropyl)piperidin-4-yl]oxy}phenyl)-3-methyl-5-{[6-(trifluoromethyl)pyrazin-2-yl]amino}-1,2-thiazole-4-carboxamide] | ≥ 20 µM
Cc1nsc(Nc2cnc(C(F)(F)F)cn2)c1C(=O)Nc1ccc(O[C@@H]2CCN(CCC(F)(F)F)C[C@H]2F)nc1 [Example 368, N-(6-{[(3R,4R)-3-fluoro-1-(3,3,3-trifluoropropyl)piperidin-4-yl]oxy}pyridin-3-yl)-3-methyl-5-{[5-(trifluoromethyl)pyrazin-2-yl]amino}-1,2-thiazole-4-carboxamide] | > 20 µM
Cc1nsc(Nc2cnc(C(F)(F)F)cn2)c1C(=O)Nc1ccc(OCC2CCN(CCC(F)(F)F)CC2)nc1 [Example 347, 3-methyl-5-{[5-(trifluoromethyl)pyrazin-2-yl]amino}-N-(6-{[1-(3,3,3-trifluoropropyl)piperidin-4-yl]methoxy}pyridin-3-yl)-1,2-thiazole-4-carboxamide] | ≥ 20 µM
CCN1CC[C@H](Oc2ccc(NC(=O)c3c(C)nsc3Nc3cnc(C(F)(F)F)cn3)cn2)[C@@H](F)C1 [Example 365, N-(6-{[(3S,4S)-1-ethyl-3-fluoropiperidin-4-yl]oxy}pyridin-3-yl)-3-methyl-5-{[5-(trifluoromethyl)pyrazin-2-yl]amino}-1,2-thiazole-4-carboxamide] | 16 µM
CCCN1CC[C@@H](Oc2ccc(NC(=O)c3c(C)nsc3Nc3cnc(C(F)(F)F)cn3)cn2)[C@H](F)C1 [Example 371, N-(6-{[(3R,4R)-3-fluoro-1-propylpiperidin-4-yl]oxy}pyridin-3-yl)-3-methyl-5-{[5-(trifluoromethyl)pyrazin-2-yl]amino}-1,2-thiazole-4-carboxamide] | > 20 µM
Cc1nsc(Nc2cnc(C(F)(F)F)cn2)c1C(=O)Nc1ccc(F)c(OC[C@@H]2CCN(CCC(F)(F)F)C2)c1 [Example 340, N-(4-fluoro-3-{[(3R)-1-(3,3,3-trifluoropropyl)pyrrolidin-3-yl]methoxy}phenyl)-3-methyl-5-{[5-(trifluoromethyl)pyrazin-2-yl]amino}-1,2-thiazole-4-carboxamide] | > 20 µM
Cc1nsc(Nc2cnc(C(F)(F)F)cn2)c1C(=O)Nc1ccc(OCC2CCN(CCF)CC2)nc1 [Example 344, N-(6-{[1-(2-fluoroethyl)piperidin-4-yl]methoxy}pyridin-3-yl)-3-methyl-5-{[5-(trifluoromethyl)pyrazin-2-yl]amino}-1,2-thiazole-4-carboxamide] | ≥ 20 µM
Cc1nsc(Nc2cnc(C(F)(F)F)cn2)c1C(=O)Nc1ccc(OCC2CCCN(CCF)C2)nc1 (stereo not drawn) [Example 325, N-(6-{[1-(2-fluoroethyl)piperidin-3-yl]methoxy}pyridin-3-yl)-3-methyl-5-{[5-(trifluoromethyl)pyrazin-2-yl]amino}-1,2-thiazole-4-carboxamide] | ≥ 20 µM

Now from value to molecule:

IC50 | SMILES
≥ 20 µM | Cc1nsc(Nc2cc(C#N)ccn2)c1C(=O)Nc1ccc(OC2CCCN(C(=O)OC(C)(C)C)C2)nc1 (stereo not drawn) [Example 34, tert-Butyl 3({5-[({5-[(4-cyanopyridin-2-yl)amino]-3-methyl-1,2-thiazol-4-yl}-carbonyl)amino]pyridin-2-yl}oxy)piperidine-1-carboxylate]
≥ 20 µM | Cc1nsc(Nc2cnc3ccccc3n2)c1C(=O)Nc1ccc(OC2CCCNC2)nc1 (stereo not drawn) [Example 32, 3-Methyl-N-[6-(piperidin-3-yloxy)pyridin-3-yl]-5-(quinoxalin-2-ylamino)-1,2-thiazole-4-carboxannide]
≥ 20 µM | Cc1nsc(Nc2ccc(C#N)cn2)c1C(=O)Nc1ccc(OC2CCN(CCF)CC2)nc1 [Example 29, 5-[(5-Cyanopyridin-2-yl)amino]-N-(6-{[1-(2-fluoroethyl)piperidin-4-yl]oxy}pyridin-3-yl)-3-methyl-1,2-thiazole-4-carboxamide]
≥ 20 µM | Cc1nsc(Nc2cnc(C(F)(F)F)cn2)c1C(=O)Nc1ccc(OC2CCCN(CCF)C2)nc1 (stereo not drawn) [Example 329, N-(6-{[1-(2-fluoroethyl)piperidin-3-yl]oxy}pyridin-3-yl)-3-methyl-5-{[5-(trifluoromethyl)pyrazin-2-yl]amino}-1,2-thiazole-4-carboxamide]
> 20 µM | Cc1nsc(Nc2cnc(C(F)(F)F)cn2)c1C(=O)Nc1ccc(O[C@@H]2CCCN(CCC(F)(F)F)C2)nc1 [Example 387, 3-methyl-5-{[5-(trifluoromethyl)pyrazin-2-yl]amino}-N-(6-{[(3R)-1-(3,3,3-trifluoropropyl)piperidin-3-yl]oxy}pyridin-3-yl)-1,2-thiazole-4-carboxamide]
≥ 20 µM | Cc1nsc(Nc2cnc(C(F)(F)F)cn2)c1C(=O)Nc1ccc(OCC2CCCN(CC(F)F)C2)nc1 (stereo not drawn) [Example 327, N-(6-{[1-(2,2-difluoroethyl)piperidin-3-yl]methoxy}pyridin-3-yl)-3-methyl-5-{[5-(trifluoromethyl)pyrazin-2-yl]amino}-1,2-thiazole-4-carboxamide]
> 20 µM | Cc1nsc(Nc2cnc(C(F)(F)F)cn2)c1C(=O)Nc1ccc(O[C@@H]2CCN(CCC(F)(F)F)C2)nc1 [Example 381, 3-methyl-5-{[5-(trifluoromethyl)pyrazin-2-yl]amino}-N-(6-{[(3R)-1-(3,3,3-trifluoropropyl)pyrrolidin-3-yl]oxy}pyridin-3-yl)-1,2-thiazole-4-carboxamide]
≥ 20 µM | Cc1nsc(Nc2ccc(C#N)cn2)c1C(=O)Nc1ccc(OC2CCNCC2)nc1 [Example 28, 5-[(5-Cyanopyridin-2-yl)amino]-3-methyl-N-[6-(piperidin-4-yloxy)pyridin-3-yl]-1,2-thiazole-4-carboxannide]
